Test results reported in paper PMC5552351, “Bacteriological profiling of diphenylureas as a novel class of antibiotics against methicillin-resistant Staphylococcus aureus” (PLoS ONE, 2017).
Values after ≈ are worked out from the molar mass of the structure shown. Like-named read-outs stand apart in the source and are kept apart here.

What was measured:
[1] = system: S. aureus NRS107 (RN4220); experiment: accumulation of UDP-N-acetylmuramyl pentapeptide (HPLC-MS); assay type: cell-based, Staphylococcus aureus; details: 10 × MIC, 30 minutes
Protocol: The accumulation of UDP-N-acetylmuramyl pentapeptide was detected using a procedure described in a previous study, with the following modifications. S. aureus NRS107 (RN4220), in early logarithmic growth stage (OD600 ~ 0.60), was incubated with 130 μg/mL chloramphenicol for 15 minutes at 37°C. […] Untreated samples served as a negative control. Samples were centrifuged at 10,000 rpm for five minutes, the supernatant discarded, and the pellet re-suspended in sterile deionzined water (1 mL). The pellet was boiled at […] for 30 minutes before samples were chilled on ice for 10 minutes. UDP-N-acetylmuramyl-pentapeptide was measured using an Agilent High Performance Liquid Chromatography coupled to a time-of-flight Mass Spectrometer (HPLC-MS). A Waters XBridge Phenyl (2.1 × 100 mm, 3.5 μm) chromatography column was used, with mobile phases of water, 0.1% formic acid (Buffer A) and acetonitrile, 0.1% formic acid (Buffer B). A gradient of 5–20% Buffer B over 14 minutes was used, with a flow rate of 0.3 mL/min. An electrospray source was used, in positive ionization mode. Extracted Ion Chromatograms (EIC) were generated at a mass-to-charge ratio (m/z) of 1150.3588 (20 ppm window). Mass error for UDP-N-acetylmuramyl-pentapeptide was <1 ppm.

[2] = system: S. aureus ATCC 6538 biofilm; experiment: bacterial CFU inside mature biofilm post-treatment; assay type: cell-based, Staphylococcus aureus; details: 24 hours
Protocol: (§1) Compounds 1, 2, and vancomycin were examined for their ability to eradicate mature staphylococcal biofilm using the microtiter dish biofilm formation assay. S. epidermidis NRS101 and S. aureus ATCC 6538 were selected as the test organisms given their ability to form strong adherent biofilm. An overnight culture of bacteria was diluted (1:100 in TSB + 1% glucose) and transferred to a 96-well plate. The plate was incubated for 24 hours at 37 °C in order to form adherent biofilm on the surface of the plate wells. The medium containing the bacterial suspension was removed and the biofilm was washed with sterile PBS to remove planktonic cells. Compounds 1, 2, or vancomycin (from 128 to 1 μg/mL), in triplicate, in TSB were incubated with the biofilm for 24 hours at 37 °C.
(§2) For enumeration of viable CFU inside the biofilm, compounds were removed, wells were washed with sterile PBS, and treated with 0.25% Trypsin-2.21 mM EDTA solution as described elsewhere. The solution containing cells was transferred to a 96-well plate, serially diluted in PBS, and plated on TSA. Plates were incubated at 37 °C for 19 hours before viable CFU were counted. Data are presented as average log10(CFU/mL) of bacteria present in the biofilm post-treatment.

[3] = system: S. epidermidis NRS101 biofilm; experiment: bacterial CFU inside mature biofilm post-treatment; assay type: cell-based, Staphylococcus epidermidis; details: 24 hours
Protocol: as §1, §2

MRSA USA400 (NRS123) = experiment: MIC in presence and absence of human serum albumin; assay type: cell-based, Staphylococcus aureus; details: for increase in MIC in the presence of HSA: MRSA USA400, 4% human serum albumin vs none; for MIC: Staphylococcus aureus, TSB
Protocol: The broth microdilution assay presented above was used to assess if compounds 1 and 2 bind to a major component of blood (human serum albumin) thus limiting the free fraction of drug available to exert its antibacterial effect. […] CaCl2 ([…]) was added to wells containing daptomycin, per the CLSI guidelines.

[4] = aqueous solubility assessment (turbidity); assay type: physicochemical; details: aqueous buffer, kinetic from dmso stock
Protocol: The solutions were diluted 100-fold into PBS in a 96-well plate and mixed. The absorbance of the PBS-containing plate was measured prior to addition of the test agents to determine the background absorbance. After two hours, the presence of precipitate was detected by turbidity (absorbance at 540 nm). […] The solubility limit is reported as the highest experimental concentration with no evidence of turbidity.

Bacillus subtilis = experiment: Bacterial Cytological Profiling (BCP); assay type: cell-based; details: two hours, LB-MSM osmotically buffered media, 37 °C
Protocol: B. subtilis cells were grown in Luria Bertani (LB) medium at 37 °C until the optical density at 600 nm (OD600) was ~0.20. Cells were then left untreated or treated with compound 1 or control antibiotics in the presence of methylsulfonylmethane (MSM), as described previously. After two hours, cells were stained with FM 4−64 (1 μg/mL) to visualize cell membranes; DAPI (1 μg/ml) to visualize DNA, and SYTOX Green (1 μg/mL), a vital stain which is normally excluded from cells with an intact membrane but brightly stains cells that are lysed. Images were collected using a Delta Vision Spectris Deconvolution microscope, as described previously.

[5] = system: S. epidermidis NRS101 biofilm; experiment: biofilm mass disruption, crystal violet reporter assay; assay type: cell-based, Staphylococcus epidermidis; details: even at 128 μg/mL, 24-hour treatment
Protocol: as §1
Compounds were subsequently removed. The biofilm was washed with PBS and then stained with 1% (w/v) crystal violet for 40 minutes. The stain was removed and wells were washed with sterile PBS. Wells were next decolorized using 95% ethanol. The optical density of each well at 595 nm was measured using a microplate reader.

VRS10 = experiment: microbe, parasite or virus in culture; assay type: cell-based, Staphylococcus aureus; details: VRS10, compound at ½ × MIC
Protocol: (§3) CAMHB was inoculated with strain VRS4 or strain VRS10 (5×10^5 CFU/mL), as described previously, with the following modifications. Aliquots ([…]) of the bacterial suspension were divided into micro-centrifuge tubes and compounds 1 or 2 (at ½ × MIC) were introduced into each tube. After 30 minutes of incubation at room temperature, samples from each tube were transferred to a new micro-centrifuge tube, prior to addition of vancomycin (at 128 μg/mL). Plates containing the test agents and bacteria were then incubated at 37 °C for 20–22 hours after which the MIC value was determined. A fold-reduction was calculated by comparing the MIC of vancomycin compared to the MIC of vancomycin given in combination with compounds 1 or 2 (at ½ × MIC).

MRSA = system: MRSA; parameters: method as in PMID 28249208; details: C. elegans; ref [21]; cited from earlier work
VRS4 = experiment: microbe, parasite or virus in culture; assay type: cell-based, Staphylococcus aureus; details: VRS4, compound at ½ × MIC
Protocol: as §3

[6] = 4% human serum albumin, read-out: MIC vs. MRSA USA400 (+HSA)
[7] = without human serum albumin, read-out: MIC vs. MRSA USA400 (-HSA)

Question: What does the source list for `C/C(=N\NC(=N)N)c1ccc(NC(=O)Nc2ccc(OCCC(C)C)cc2)cc1` [compound 1]?
Answer: UDP-N-acetylmuramyl pentapeptide accumulation [1]: notable increase; reduction in bacterial CFU within S. aureus biofilm ([2]; 64 μg/mL): 0.9 log10; reduction in bacterial CFU within S. aureus biofilm ([2]; 128 μg/mL): 3.0 log10; reduction in bacterial CFU within S. epidermidis biofilm ([3]; 64 μg/mL): 1.0 log10; reduction in bacterial CFU within S. epidermidis biofilm ([3]; 128 μg/mL): 2.84 log10; reduction in bacterial CFU within S. epidermidis biofilm ([3]; 8, 16, and 32 μg/mL, vs untreated control): no reduction; increase in MIC in the presence of HSA (MRSA USA400 (NRS123)): seven-fold; MIC (MRSA USA400 (NRS123); [6]): 32 µg/mL (≈ 80.7 µM); MIC (MRSA USA400 (NRS123); [7]): 4 µg/mL (≈ 10.1 µM); solubility at 2 h [4]: 23.9 µg/mL (≈ 60.4 µM); cytological profile (cell morphology) (Bacillus subtilis): cell shape defects; decrease in S. epidermidis biofilm mass [5]: no decrease; Fold re-sensitization of VRSA to vancomycin (VRS10): 3-fold

Question: Which “reduction in bacterial CFU within S. aureus biofilm” value ([2]; 64 μg/mL) does the source give for `C/C(=N\NC(=N)N)c1ccc(NC(=O)Nc2ccc(OC3CCCCCC3)cc2)cc1` [compound 2] here?
Answer: 0.8 log10

Question: And the “reduction in bacterial CFU within S. aureus biofilm” value ([2]; 128 μg/mL)?
Answer: 1.76 log10

Question: What about the “reduction in bacterial CFU within S. epidermidis biofilm” value ([3]; all concentrations tested (from 8 to 128 μg/mL)) of the same molecule?
Answer: unable to reduce

Question: And the “reducing the burden of MRSA in infected worms” value (MRSA)?
Answer: superior to vancomycin

Question: What about the “increase in MIC in the presence of HSA” value (MRSA USA400 (NRS123)) of the same molecule?
Answer: 15 fold

Question: And the MIC (MRSA USA400 (NRS123); [6])?
Answer: 128 µg/mL (≈ 303 µM)

Question: What about the MIC (MRSA USA400 (NRS123); [7]) of the same molecule?
Answer: 8 µg/mL (≈ 18.9 µM)

Question: What about the solubility at 2 h [4] of the same molecule?
Answer: 5.15 µg/mL (≈ 12.2 µM)

Question: What about the “decrease in S. epidermidis biofilm mass” value [5] of the same molecule?
Answer: no decrease

Question: What about the “Fold re-sensitization of VRSA to vancomycin” value (VRS4) of the same molecule?
Answer: 7-fold
